Test results as given in patent US20220412955A1, “A MODEL OF CLINICAL SYNERGY IN CANCER” (priority 2019, published 2022).

Tested on: primary MM cells
Assay type: cell-based
Settings: patient 210's primary MM cells, 0.05 μM, interval of 120 hours
Protocol: Each well was imaged every 30 minutes for a total duration of up to 6 days.

## CC(C)C[C@H](NC(=O)[C@H](CCc1ccccc1)NC(=O)CN1CCOCC1)C(=O)N[C@@H](Cc1ccccc1)C(=O)N[C@@H](CC(C)C)C(=O)[C@@]1(C)CO1 [carfilzomib]
  delay between start of treatment and initiation of cell death: ~30 h
